Data from paper PMC5441580, “GPR40 partial agonist MK-2305 lower fasting glucose in the Goto Kakizaki rat via suppression of endogenous glucose production” (PLoS ONE, 2017).
Values joined by “and” are separate entries in the source; they are usually repeats but may differ in a detail not shown here. Identical values can stand only once.

Tests used:
[1] = system: GK rats; assay: GK rat acute oral glucose tolerance test (OGTT) with insulin co-measurement; assay type: in vivo; set-up: Blood Glucose AUC / Insulin AUC: unit not given here; details: for Blood Glucose / Insulin (plasma) / Insulin AUC / Blood Glucose AUC: individual GK rats; for Insulin AUC: OGTT t = 0 to 60 min; for Blood Glucose AUC: OGTT t = 0 to 120 min
Procedure: On the day of the study, male GK rats were bled via tail snip, and blood glucose was measured via glucometer (OneTouch Ultra, Lifescan Inc., Milpitas, CA). Fed glucose was measured at 8 A.M. (lights on 7 A.M.– 7 P.M.) and used to select and sort animals into treatment groups (n = 8/ GK group, plus n = 6/WKY control group). Animals were then placed into clean cages, and food was removed. […] Dosages from 0.3–10 mg MK-2305 / kg body weight were tested. Both the GK and WKY control groups received vehicle (0.5% methylcellulose). Blood glucose was measured again (time = 0) immediately prior to a dextrose challenge of 1 g/kg at 10 ml/kg dose volume (Dextrose, Hospira Inc., Lake Forrest IL) and then again at 20, 40, 60, and 120 min after the glucose challenge. Insulin was co-measured to test the glucose-dependent secretory response to MK-2305 delivered acutely PO. […] […] Values of percent inhibition vs. vehicle for each treatment were generated from the AUC data. Maximally efficacious dose (MED) was defined as the minimum dosage generating a maximum inhibition of glucose excursion achieved with this compound in the OGTT assay.
Plasma was analyzed for triglycerides, NEFA, and HbA1C using a P Modular Roche Clinical Chemistry analyzer. Liver triglycerides were extracted as described by Bligh and Dyer, and were measured using the Infinity triglyceride assay kit (Thermo Scientific, Rockford, IL). Plasma insulin levels were measured via EIA (Mesoscale Discovery ELISA Kit, Gaithersburg MD).

[2] = system: WKY rats; assay: endogenous glucose production in vivo, 2H/13C dual tracer, acute treatment, WKY rats; set-up: species or system rat
Procedure: [The procedure below names another organism; the source lists this organism under the same test.] To evaluate whether MK-2305 treatment produced an effect on EGP in vivo, a ^2H/^13C dual tracer approach was used to calculate EGP and its contributing sources. On the day of the study, GK rats were bled via tail snip, and blood glucose was measured via glucometer. Ambient glucose was measured at 8 A.M. and used to sort animals into treatment groups (n = 8 per group). 0.9% NaCl salinated D2O (Sigma-Aldrich, St. Louis, MO) was administered to all animals via IP injection at dose volume of 20 ml/kg. Animals were then placed in clean cages and food was removed. After a 5 hour fast, blood glucose was measured and animals were dosed PO with MK-2305 at 10 mg/kg (5 ml/kg) or vehicle (0.5% methylcellulose) immediately followed by 50 mg/kg [U-^13C] glucose (Sigma-Aldrich) IP at 5 ml/kg. Blood was collected via tail snip at time points from 60–150 min post treatment to measure blood glucose as well as endogenous (^12C-glucose) and exogenous (^13C-glucose) via GCMS. Following the last tail blood collection, rats were anesthetized with isoflurane and cardiac blood was collected into K2EDTA tubes (Becton, Dickinson and Co., Franklin Lakes, NJ).
The serially collected blood samples were analyzed for ^13C-glucose enrichment using GC-MS analysis. The % ^13C glucose enrichments were then combined with the total glucose readings to calculate the concentration of ^13C-glucose, and these values were modeled with a two-compartment model of whole body glucose metabolism to calculate the average EGP for the period from 0–150 minutes.
Terminal blood samples were analyzed for relative ^2H enrichment in plasma glucose using the monoacetone glucose method. Briefly, samples were extracted with 70% perchloric acid and centrifuged at 25,000 rcf for 10 min at 4°C. The supernatant was collected and the pH was adjusted to 6–8 using KOH. The samples were then lyophilized overnight. To convert plasma glucose to monoacetone glucose (MAG), acetone and concentrated sulfuric acid were added to the lyophilized samples and stirred for 4 hours at room temperature. Water was then added and the pH adjusted to 2.0 with 3M Na2CO3. Samples were stirred moderately for 18 hours at room temperature, the pH was adjusted to 7 with 3M Na2CO3, and the samples were completely dried by speed vacuum concentration. The resulting MAG samples were then extracted in hot ethyl acetate, dried overnight under a stream of N2 gas, purified using Discovery DSC-18 SPE columns (6 ml, 1 g bed weight), and freeze dried. Purified MAG samples were solubilized in 180 μl 90% acetonitrile for ^2H NMR analysis which was performed using the lock channel of a 950 MHz Bruker NMR spectrometer (David H Murdock Research Institute, Kannapolis, NC). Acquisition parameters were as follows: 90° pulse, D1 = 1 s, ^1H broadband decoupling, NS = 3600 averages, acquisition time ~ 1 hr. The ^2H NMR spectra of the MAG samples were then analyzed using in–house developed Matlab (The Mathworks Inc, Natick, MA) to model the NMR peaks with a Lorentzian line shape, and the results were used to calculate integrals for each of the seven NMR resonances in the MAG spectrum. Peaks 2, 5, and 6s were then used to calculate the relative sources of EGP (i.e. gluconeogenesis from TCA cycle substrates, gluconeogenesis from triose phosphates, and glycogenolysis) and these values were combined with the total EGP measurement to calculate absolute fluxes of glucose production.

[3] = 10 mg/kg PO, GK rats, p < 0.001
[4] = 0.3 mpk PO, 60 min after glucose challenge
[5] = 1 mpk PO, 60 min after glucose challenge
[6] = 3 mpk PO, 60 min after glucose challenge
[7] = 10 mpk PO, 60 min after glucose challenge
[8] = acute treatment, 10 mg/kg, individual animals

O=C1NC(=O)C(C2CCOc3cc(Oc4ccc(C(F)(F)F)cc4Cl)ccc32)S1 (stereo not shown) [MK-2305]
decrease of glucose AUC vs. vehicle in OGTT ([1]; 0.3 mg/kg PO, GK rats, p < 0.001): 18% | increase in plasma insulin vs. vehicle during OGTT ([1]; 1 mg/kg PO, GK rats, p < 0.001): 59% | increase in plasma insulin vs. vehicle during OGTT ([1]; 3 mg/kg PO, GK rats, p < 0.001): 83% | reduction in glucose AUC from vehicle in OGTT ([1]; 3 mg/kg PO, GK rats, p < 0.001): 40% | decrease of glucose AUC vs. vehicle in OGTT [1, 3]: 54% | increase in plasma insulin vs. vehicle during OGTT [1, 3]: 124% | Blood Glucose ([1]; 0.3 mpk PO, 40 min after glucose challenge): 254 mg/dl and 284 mg/dl and 328 mg/dl and 294 mg/dl (2×) and 264 mg/dl and 219 mg/dl and 321 mg/dl | Blood Glucose [1, 4]: 197 mg/dL and 204 mg/dL and 264 mg/dL and 233 mg/dL and 229 mg/dL and 270 mg/dL and 209 mg/dL and 330 mg/dL | Insulin (plasma) [1, 4]: 1.219 ng/mL and 1.901 ng/mL and 1.676 ng/mL and 1.551 ng/mL and 1.782 ng/mL and 1.959 ng/mL and 1.355 ng/mL and 1.696 ng/mL | Blood Glucose ([1]; 0.3 mpk PO, 120 min after glucose challenge): 149 mg/dL and 196 mg/dL and 217 mg/dL and 188 mg/dL and 177 mg/dL and 203 mg/dL and 145 mg/dL and 249 mg/dL | Insulin AUC ([1]; 0.3 mpk PO): 107.011 and 73.5773 and 77.5052 and 96.9965 and 105.345 and 92.3289 and 113.426 and 113.509 | Blood Glucose AUC ([1]; 0.3 mpk PO): 30355 and 22170 and 34265 and 24465 and 25900 and 30390 and 27140 and 25850 | Insulin (plasma) ([1]; 0.3 mpk PO, time 0 min (before glucose challenge)): 1.527 ng/mL and 1.4 ng/mL and 1.238 ng/mL and 1.748 ng/mL and 1.648 ng/mL and 1.595 ng/mL and 1.041 ng/mL and 1.268 ng/mL | Insulin (plasma) ([1]; 0.3 mpk PO, time -70 min (before dosing)): 0.785 ng/mL and 1.027 ng/mL and 1.247 ng/mL and 1.425 ng/mL and 1.262 ng/mL and 0.879 ng/mL and 0.539 ng/mL and 0.638 ng/mL | Blood Glucose ([1]; 1 mpk PO, 40 min after glucose challenge): 191 mg/dL and 247 mg/dL and 193 mg/dL and 178 mg/dL and 222 mg/dL and 184 mg/dL and 221 mg/dL and 228 mg/dL | Blood Glucose [1, 5]: 162 mg/dL and 197 mg/dL and 120 mg/dL and 151 mg/dL and 200 mg/dL and 153 mg/dL and 188 mg/dL and 185 mg/dL | Insulin (plasma) [1, 5]: 1.868 ng/mL and 1.957 ng/mL and 1.358 ng/mL and 2.073 ng/mL and 2.523 ng/mL and 1.285 ng/mL and 2.265 ng/mL and 1.751 ng/mL | Blood Glucose ([1]; 1 mpk PO, 120 min after glucose challenge): 120 mg/dL and 147 mg/dL and 101 mg/dL and 113 mg/dL and 162 mg/dL and 119 mg/dL and 110 mg/dL and 132 mg/dL | Insulin AUC ([1]; 1 mpk PO): 127.564 and 125.822 and 145.583 and 145.346 and 124.296 and 92.8339 and 131.803 and 160.953 | Blood Glucose AUC ([1]; 1 mpk PO): 18600 and 21570 and 21405 and 19360 and 22440 and 17695 and 17840 and 23185 | Insulin (plasma) ([1]; 1 mpk PO, time 0 min (before glucose challenge)): 1.711 ng/mL and 2.457 ng/mL and 1.219 ng/mL and 2.149 ng/mL and 2.161 ng/mL and 2.386 ng/mL and 1.648 ng/mL and 2.525 ng/mL | Insulin (plasma) ([1]; 1 mpk PO, time -70 min (before dosing)): 0.867 ng/mL and 1.049 ng/mL and 0.952 ng/mL and 1.247 ng/mL and 1.294 ng/mL and 0.937 ng/mL and 1.068 ng/mL and 1.695 ng/mL | Blood Glucose ([1]; 3 mpk PO, 40 min after glucose challenge): 134 mg/dl and 184 mg/dl and 174 mg/dl (2×) and 183 mg/dl and 148 mg/dl and 181 mg/dl and 197 mg/dl | Blood Glucose [1, 6]: 117 mg/dl and 116 mg/dl (2×) and 128 mg/dl and 136 mg/dl and 121 mg/dl and 86 mg/dl and 167 mg/dl | Insulin (plasma) [1, 6]: 1.611 ng/mL and 1.625 ng/mL and 1.542 ng/mL and 2.593 ng/mL and 2.136 ng/mL and 0.682 ng/mL and 1.668 ng/mL and 1.737 ng/mL | Blood Glucose ([1]; 3 mpk PO, 120 min after glucose challenge): 98 mg/dl and 130 mg/dl and 111 mg/dl and 112 mg/dl and 104 mg/dl (2×) and 78 mg/dl and 124 mg/dl | Insulin AUC ([1]; 3 mpk PO): 154.858 and 139.888 and 150.655 and 143.381 and 149.287 and 136.931 and 166.524 and 165.471 | Blood Glucose AUC ([1]; 3 mpk PO): 13845 and 15230 and 19575 and 14655 and 17655 and 16235 and 16890 and 15775 | Insulin (plasma) ([1]; 3 mpk PO, time 0 min (before glucose challenge)): 2.038 ng/mL and 2.813 ng/mL and 2.511 ng/mL and 1.822 ng/mL and 2.53 ng/mL and 1.993 ng/mL and 3.94 ng/mL and 2.292 ng/mL | Insulin (plasma) ([1]; 3 mpk PO, time -70 min (before dosing)): 1.014 ng/mL and 1.059 ng/mL and 0.86 ng/mL and 1.354 ng/mL and 1.26 ng/mL and 1.009 ng/mL and 0.738 ng/mL and 0.715 ng/mL | Insulin (plasma) ([1]; 10 mpk PO, 10 min after glucose challenge): 2.601 ng/mL and 2.364 ng/mL and 2.726 ng/mL and 5.09 ng/mL | Blood Glucose ([1]; 10 mpk PO, 40 min after glucose challenge): 175 mg/dL and 159 mg/dL and 143 mg/dL and 141 mg/dL and 190 mg/dL and 140 mg/dL and 169 mg/dL and 138 mg/dL | Blood Glucose [1, 7]: 112 mg/dL and 121 mg/dL and 110 mg/dL and 96 mg/dL and 134 mg/dL and 125 mg/dL and 136 mg/dL and 122 mg/dL | Insulin (plasma) [1, 7]: 3.212 ng/mL and 2.293 ng/mL and 2.244 ng/mL and 2.355 ng/mL and 1.203 ng/mL and 2.734 ng/mL and 1.35 ng/mL and 1.965 ng/mL | Blood Glucose ([1]; 10 mpk PO, 120 min after glucose challenge): 95 mg/dL and 96 mg/dL and 92 mg/dL and 103 mg/dL and 108 mg/dL and 106 mg/dL and 90 mg/dL and 86 mg/dL | Insulin AUC ([1]; 10 mpk PO): 214.776 and 171.523 and 203.357 and 192.34 and 162.197 and 187.807 and 233.894 and 115.015 | Blood Glucose AUC ([1]; 10 mpk PO): 15625 and 16245 and 14660 and 15615 and 15760 and 13890 and 14070 and 17780 | Insulin (plasma) ([1]; 10 mpk PO, time 0 min (before glucose challenge)): 4.429 ng/mL and 3.472 ng/mL and 2.279 ng/mL and 3.372 ng/mL and 2.041 ng/mL and 3.234 ng/mL and 3.429 ng/mL and 2.217 ng/mL | Insulin (plasma) ([1]; 10 mpk PO, time -70 min (before dosing)): 1.186 ng/mL and 1.004 ng/mL and 1.491 ng/mL and 1.304 ng/mL and 0.764 ng/mL and 1.19 ng/mL and 0.996 ng/mL and 0.784 ng/mL | Blood Glucose ([1]; 10 mpk PO, time AM (fed, before dosing)): 188 mg/dL and 169 mg/dL and 124 mg/dL and 160 mg/dL | MED (maximally efficacious dose) in OGTT ([1]; GK rats, PO): 3 mg/kg | effects on EGP ([2]; acute): not statistically significant | Glucose Production, GNG Glycerol [2, 8]: 2.7 umol/kg/min (2×) and 2.4 umol/kg/min and 1.6 umol/kg/min | Glucose Production, GNG TCA [2, 8]: 8 µmol/kg/min and 8.7 µmol/kg/min and 7.8 µmol/kg/min and 6.4 µmol/kg/min | Glucose Production, GNG Total [2, 8]: 10.7 µmol/kg/min and 11.2 µmol/kg/min and 10.5 µmol/kg/min and 8.1 µmol/kg/min | Glucose Production, Glycogenolysis [2, 8]: 6.9 µmol/kg/min and 4.7 µmol/kg/min and 6.8 µmol/kg/min and 3.4 µmol/kg/min
